The record followed here is publication PMC6213006, “Directed Evolution of a Homodimeric Laccase from Cerrena unicolor BBP6 by Random Mutagenesis and In Vivo Assembly” (International Journal of Molecular Sciences, 2018).

What all share (experiment): ABTS oxidation at […] nm, Lineweaver-Burk, crude culture supernatant
Assay type in all cases: biochemical, Cerrena unicolor

The subject of assay [1] is LacA (parent-type αLacA, recombinant). Conditions: 100 mM acetate pH 4.0, 30 °C, 10–1000 µM ABTS, air O2; RM1925.
Assay [2] has the same test system. Conditions: 100 mM acetate pH 4.0, 30 °C, 10–1000 µM ABTS, air O2; IVA189.
Assay [3] has the same test system. Conditions: 100 mM acetate pH 4.0, 30 °C, 10–1000 µM ABTS, air O2; RM243.
Assay [4] has the same test system. Conditions: 100 mM acetate pH 4.0, 30 °C, 10–1000 µM ABTS, air O2; RM1905.
The test system is the same in assay [5]. Conditions: 100 mM acetate pH 4.0, 30 °C, 10–1000 µM ABTS, air O2; IVA205.
The test system is the same in assay [6]. Conditions: 100 mM acetate pH 4.0, 30 °C, 10–1000 µM ABTS, air O2; RM1307, expressed with leader mutations αN23I/αA75T.
The test system is the same in assay [7]. Conditions: 100 mM acetate pH 4.0, 30 °C, 10–1000 µM ABTS, air O2; RM1524.
For assay [8] the test system is unchanged. The conditions noted are these: 100 mM acetate pH 4.0, 30 °C, 10–1000 µM ABTS, air O2; RM464.
Assay [9] has the same test system. Conditions: 100 mM acetate pH 4.0, 30 °C, 10–1000 µM ABTS, air O2; RM811.
Assay [10] has the same test system. Conditions: 100 mM acetate pH 4.0, 30 °C, 10–1000 µM ABTS, air O2; IVA264.
Assay [11] has the same test system. Conditions: 100 mM acetate pH 4.0, 30 °C, 10–1000 µM ABTS, air O2.

By Km is commonly meant the concentration of substrate that gives half-maximal velocity.

As for `CCn1c(=NN=c2sc3cc(S(=O)(=O)O)ccc3n2CC)sc2cc(S(=O)(=O)O)ccc21` [2,2′-azino-bis(3-ethylbenzothiazoline-6-sulfonic acid)], the Km in [1] amounted to 79.8 ± 12.7 µM; in assay [2] it was 69.8 ± 3.6 µM; in assay [3] it was 64.8 ± 1.4 µM; in assay [4] it was 147 ± 14.6 µM; in assay [5], 85.3 ± 0.3 µM; in [6], 67.5 ± 1.7 µM. Also, the Km turned out to be 59.8 ± 2.2 µM in [7]; 90.2 ± 3.4 µM in [8]; 168 µM in assay [9]; 64 ± 2.5 µM in assay [10]; 206 ± 11.6 µM in assay [11].
